Measured values as given in patent US9980928B2, “Hydroxy aliphatic substituted phenyl aminoalkyl ether derivatives” (PROUS INSTITUTE FOR BIOMEDICAL RESEARCH, S.A., priority 2012, dated 2018).
Where “and” joins values, the source holds several entries; their conditions need not be identical. Identical values can stand only once. Entries after “also recorded” stand apart in the source; their conditions may differ.

Key:
[1] = target: T1, serotonin transporter (Homo sapiens, UniProt P31645); assay: Serotonin transporter binding radioligand inhibition ([3H]-imipramine); settings: concentration 5 μM
T1 construct: expressed in transfected cells; host or cells: CHO cells
T1 sequence (P31645 whole entry): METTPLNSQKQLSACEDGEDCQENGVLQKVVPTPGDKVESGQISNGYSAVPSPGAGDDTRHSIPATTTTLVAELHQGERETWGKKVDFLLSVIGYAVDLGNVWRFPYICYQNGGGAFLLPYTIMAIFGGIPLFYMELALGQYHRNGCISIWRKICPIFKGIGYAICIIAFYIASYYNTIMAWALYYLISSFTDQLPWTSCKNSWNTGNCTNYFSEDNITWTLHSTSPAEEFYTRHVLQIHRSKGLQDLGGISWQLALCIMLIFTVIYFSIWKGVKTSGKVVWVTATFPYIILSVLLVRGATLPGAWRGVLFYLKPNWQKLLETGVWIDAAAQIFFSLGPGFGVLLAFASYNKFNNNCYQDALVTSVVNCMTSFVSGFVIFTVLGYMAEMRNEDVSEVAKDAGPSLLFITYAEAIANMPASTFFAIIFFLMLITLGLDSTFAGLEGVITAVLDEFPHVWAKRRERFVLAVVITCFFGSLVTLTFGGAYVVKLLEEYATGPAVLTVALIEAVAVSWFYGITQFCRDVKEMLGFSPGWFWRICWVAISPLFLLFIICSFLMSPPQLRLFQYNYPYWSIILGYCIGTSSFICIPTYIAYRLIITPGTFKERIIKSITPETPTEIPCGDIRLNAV
Description: The serotonin transporter removes serotonin from the synaptic deft. The serotonin transporter terminates the effects of […], enabling its reuse by the presynaptic neuron.

[2] = system: mice; assay: Forced swimming test in mice; format: in vivo
Protocol: The antidepressant activity was determined using the forced swimming test described in Porsolt, R.-D. et al. Arch Int Pharmacodyn 1977, 229(2): 327-36.
Reduction in the duration of immobility by 50% or more relative to the control group indicates possible antidepressant activity. Also, one-way ANOVA followed by Dunnett's test was applied to compare the test compound-treated and vehicle control groups. Significance was considered to be P<0.05.

[3] = system: C57BL6 mice; assay: Maximum tolerated doses, 5 days oral administration; format: in vivo; settings: mouse, doses up to 100 mg/kg/day during 5 days
Description: An alternative evaluation of the toxicity of the compounds of the present invention may be conducted using the method described in Branch, D. R. Exp Toxicol Pathol 2009, 61(2): 133-6 and Emmenegger, U. et al. Neoplasia 2011, 13(1): 40-8. […]

[4] = target: uptake of norepinephrine (Homo sapiens, UniProt P23975); assay: Uptake inhibition of norepinephrine, cellular assay; format: cell-based; settings: read-out: Norepinephrine reuptake inhibition (IC50 μM)
uptake of norepinephrine, sequence (P23975 whole entry): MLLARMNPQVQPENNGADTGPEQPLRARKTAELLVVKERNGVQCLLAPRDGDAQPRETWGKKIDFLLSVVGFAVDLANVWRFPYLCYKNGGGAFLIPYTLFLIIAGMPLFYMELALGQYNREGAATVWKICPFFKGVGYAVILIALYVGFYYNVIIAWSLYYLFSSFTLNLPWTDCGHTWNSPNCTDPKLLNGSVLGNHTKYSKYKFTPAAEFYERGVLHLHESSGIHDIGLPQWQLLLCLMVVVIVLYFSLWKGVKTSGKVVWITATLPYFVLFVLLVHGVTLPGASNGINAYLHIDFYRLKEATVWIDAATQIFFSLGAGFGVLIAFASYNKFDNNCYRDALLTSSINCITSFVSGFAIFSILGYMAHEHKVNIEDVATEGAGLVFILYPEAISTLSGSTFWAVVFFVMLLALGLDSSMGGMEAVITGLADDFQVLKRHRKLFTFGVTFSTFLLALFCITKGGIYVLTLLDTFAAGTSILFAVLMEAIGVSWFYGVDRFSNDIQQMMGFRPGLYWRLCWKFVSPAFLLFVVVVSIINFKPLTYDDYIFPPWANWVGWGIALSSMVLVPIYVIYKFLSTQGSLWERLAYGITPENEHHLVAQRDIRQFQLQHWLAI
Protocol: (§1) The effect of the compounds of the present invention as inhibitors of the uptake of norepinephrine and serotonin in cellular assays at concentrations that range from […] to 1 nM is determined following the methods described in Galli, A. et al. J Exp Biol 1995, 198(Pt. 10): 2197-212 and Gu, H. et al. J Biol Chem. 1994, 269(10):7124-30.

[5] = system: p-PLCγ1; assay: Western blot of p-PLCγ1 in mouse brain after i.p. administration; format: in vivo, mice; settings: 30 mg/kg i.p., 1 hour after administration
Protocol: (§2) Acute biochemical neuronal changes in neurotrophin and synaptic plasticity signaling after the administration of the compounds to be tested may be studied by Western blot assessment of ERK, Akt, phospholipase C (PLC), Trk-B, […] and CAMK II phosphorylation assays in the hippocampus, striatum and cortex at 1 hour post-administration.
(§3) Two groups of animals were used: C57BL control mice and mice treated by i.p. administration of a dose of 30 mg/kg of the compound to be tested diluted in saline solution or control saline (n=6 per group).
(§4) Animals were sacrificed by cervical dislocation at the corresponding time and different brain regions were dissected (frontal cortex, striatum, hippocampus, cerebellum) after […] of having administered the compounds. […] The supernatants were collected and the protein concentration was measured using the Dc protein assay kit (Bio-Rad, Hercules, Calif., USA) read in a 96-well plate. […]
(§5) After primary antibody incubation, membranes were washed with TBS-T and incubated for 1 hour at room temperature with the appropriate horseradish peroxidase-conjugated secondary antibody (1:2000; Promega, Madison, Wis., USA), and the reaction was finally visualized with the Western Blotting Luminol Reagent (Santa Cruz Biotechnology, Santa Cruz, Calif., USA). Western blot replicates were scanned and quantified using a computer-assisted densitometric analysis.

[6] = target: uptake of serotonin (Homo sapiens, UniProt P31645); assay: Uptake inhibition of serotonin, cellular assay; format: cell-based; settings: read-out: Serotonin reuptake inhibition (IC50 μM)
uptake of serotonin, sequence (P31645 whole entry): as the sequence (P31645 whole entry) above
Protocol: as §1

[7] = target: T2, Human dopamine transporters (Homo sapiens, UniProt Q01959); assay: Binding to the dopamine transporter ([125I]-RTI-55); settings: 10 μM; read-out: inhibitory effect on [125I]-RTI-55 binding
T2 construct: expressed in transfected cells; host or cells: CHO-K1 cells (membranes)
T2 sequence (Q01959 whole entry): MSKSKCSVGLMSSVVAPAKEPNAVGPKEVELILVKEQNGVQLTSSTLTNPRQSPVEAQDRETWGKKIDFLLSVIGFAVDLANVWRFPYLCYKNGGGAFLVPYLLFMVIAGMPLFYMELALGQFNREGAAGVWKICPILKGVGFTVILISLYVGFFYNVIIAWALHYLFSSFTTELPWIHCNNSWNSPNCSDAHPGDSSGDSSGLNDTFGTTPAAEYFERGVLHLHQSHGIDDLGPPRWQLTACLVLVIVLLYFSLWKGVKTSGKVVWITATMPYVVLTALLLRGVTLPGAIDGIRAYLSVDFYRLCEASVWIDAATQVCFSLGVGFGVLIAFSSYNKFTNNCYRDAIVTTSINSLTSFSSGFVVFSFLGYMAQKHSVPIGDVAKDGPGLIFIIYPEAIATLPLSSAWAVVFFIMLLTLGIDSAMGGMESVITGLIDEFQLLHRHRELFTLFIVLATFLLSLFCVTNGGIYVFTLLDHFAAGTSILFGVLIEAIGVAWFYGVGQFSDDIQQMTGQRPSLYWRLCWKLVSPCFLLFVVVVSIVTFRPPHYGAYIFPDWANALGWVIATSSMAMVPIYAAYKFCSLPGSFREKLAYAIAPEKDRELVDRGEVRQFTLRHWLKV
Protocol: Human dopamine transporters expressed in CHO—K1 cells are used in modified Tris-HCl buffer at pH 7.4. […] Non-specific binding is estimated in the presence of […] nomifensine.

[8] = system: mice; assay: Mouse formalin assay (analgesic activity); format: in vivo
Protocol: The analgesic activity of the compounds of the present invention is determined making use of the mouse formalin test described in Hunskaar, S. J Neurosci Methods 1985, 14(1): 69-76. The hind paw licking time was measured at 5-minute intervals for 30 minutes following subplantar injection of formalin (0.02 mL, 2%). Statistical analysis using one-way ANOVA followed by Dunnett's test was applied for comparison between the test substance-treated and vehicle control groups. P<0.05 was considered significant.

[9] = system: p-Akt; assay: Western blot of p-Akt in mouse brain after i.p. administration; format: in vivo, mice; settings: 30 mg/kg i.p., hippocampus, 1 hour after administration; hydrochloride
Protocol: as §2, §3, §4, §5

[10] = system: mice; assay: Tail suspension assay in mice; format: in vivo; settings: 90 mg/kg, route not given
Protocol: Another method of measuring antidepressant activity that may be used to evaluate the compounds of the present invention is the tail suspension test in mice described in Vogel, H. G. and Vogel, W. H. (Eds.) Drug Discovery and Evaluation, Springer-Verlag Berlin Heidelberg, 1997) pp. 304-3059). The mouse tail suspension assay was conducted 60 minutes after dosing. The duration of immobility was recorded for a period of 5 minutes after tail suspension was initiated, and reduction in the duration of immobility by ≥50% relative to the control group indicated antidepressant activity. Statistical analysis was also performed by using one-way ANOVA followed by Dunnett's test to compare the data of test compound-treated and vehicle control groups. Significance was considered to be P<0.05.

## CNCCC(Oc1ccc(CCO)cc1)c1ccccc1.Cl (single isomer, unassigned) [Example 2, 2-[4-[3-(Methylamino)-1-phenylpropoxy]phenyl]ethanol hydrochloride]
[1]
  inhibition at 5 µM: 82%
[2]; 30 mg/kg intraperitoneal, 60 minutes post-dosing
  antidepressant activity (duration of immobility): significant antidepressant activity
[2]; 90 mg/kg p.o.
  antidepressant activity (duration of immobility): significant activity
[3]
  oral toxicity, toxic effect: did not show any toxic effect
[4]
  IC50: 0.0864 µM and 0.086 µM
[5]
  p-PLCγ1 change: No significant change
[6]
  IC50: 0.328 µM and 0.348 µM
[7]
  inhibition at 10 µM: 88%
[8]; 3 mg/kg oral
  analgesic activity following formalin challenge (hind paw licking time): significant analgesic activity
[8]; 30 mg/kg intraperitoneal
  analgesic activity following formalin challenge (hind paw licking time): significant analgesic activity
[8]; 30 mg/kg oral
  analgesic activity following formalin challenge (hind paw licking time): significant analgesic activity
[8]; 90 mg/kg oral
  analgesic activity following formalin challenge (hind paw licking time): significant analgesic activity
[9]
  p-Akt levels (Akt phosphorylation): positive significant increase; also recorded: increase in Akt phosphorylation
[10]
  antidepressant effect (duration of immobility): significant activity
